# In patent US8604167B2, “CD133 epitopes” (ImmunoCellular Therapeutics, Ltd., priority 2009, dated 2013):
# Legend:
# [1] = tested on: CD8+ T cells; assay: IFN-γ ELISPOT of CTL stimulated with peptide-pulsed DC; type: cell-based, human; design: key to ELISPOT IFN-γ spots vs negative control: ++: Wells that clearly had more spots than the negative control were indicated as positive
# Experimental: (§1) HLA-A2 positive PBMC isolated by leukapheresis from two healthy human subjects were obtained from HemaCare Corporation (Van Nuys, Calif.). The PBMC from each subject were used to prepare CD8+ T cells and autologous dendritic cells for stimulation with immunogenic peptides. Following stimulation, the T cells were subjected to functional assays.
# (§2) CD8+ T cells were prepared from each subject's PBMC by positive selection using CD8 MicroBeads (Miltenyi Biotec, Bergisch Gladbach, Germany), according to the manufacturer's instructions.
# Autologous DC were prepared from adherent PBMC (2×10^6 cells/ml) cultured for 5 days in the presence of 500 IU/ml granulocyte macrophage colony-stimulating factor (Leucomax; Schering-Plough, Kenilworth, N.J.) and 500 IU/ml IL-4 (R&D Systems, Minneapolis, Minn.) in complete medium [RPMI 1640 supplemented with 10% heat-inactivated human AB serum, […] L-glutamine (Invitrogen) and antibiotics]. On day 5, DC maturation was induced by addition of 50 ng/ml TNF-α. On day 7, the mature DC were collected and pulsed with 20 μg/ml peptide for 4 hours at 20° C. Peptide-pulsed DC not used immediately were frozen for later use. […]
# On days 7 and 14, cryopreserved peptide pulsed mature DC were thawed and used to restimulate the T-cells. […] Samples were washed twice by centrifugation at 400 g for 7 minutes, and representative samples were evaluated for cell concentration and viability. […]
# [2] = tested on: CD8+ T cells; assay: Peptide-HLA-A2 dimer staining of CTL stimulated with peptide-pulsed DC; type: cell-based, human; settings: for peptide dimer staining relative to background, in words: summary of Table 7
# Experimental: as §1, §2
# Autologous DC were prepared from adherent PBMC (2×10^6 cells/ml) cultured for 5 days in the presence of 500 IU/ml granulocyte macrophage colony-stimulating factor (Leucomax; Schering-Plough, Kenilworth, N.J.) and 500 IU/ml IL-4 (R&D Systems, Minneapolis, Minn.) in complete medium [RPMI 1640 supplemented with 10% heat-inactivated human AB serum, […] L-glutamine (Invitrogen) and antibiotics]. On day 5, DC maturation was induced by addition of 50 ng/ml TNF-α. On day 7, the mature DC were collected and pulsed with 20 μg/ml peptide for 4 hours at 20° C. Peptide-pulsed DC not used immediately were frozen for later use.
# The peptide pulsed matured DC were diluted to 3×10^5 cells/mL in CTL complete medium and irradiated at 2800 Rads. The initial in vitro stimulation was performed at a DC:T cell ratio of 1:5 by plating 100 μL/well of each batch of DC into a 96 well round bottom tissue culture plate (3×10^4 DC/well). One plate was prepared per peptide. To all wells, 100 μL of the CD8+ enriched T cell population was added at 1.5×10^6 cells/mL was added, resulting in a final concentration of 1.5×10^5 T-cells/well. Plates were incubated at 37° C., 5% carbon dioxide, and high humidity.
# On days 7 and 14, cryopreserved peptide pulsed mature DC were thawed and used to restimulate the T-cells. Cryopreserved samples of each peptide pulsed DC batch were removed from liquid nitrogen and thawed rapidly in a 37° C. water-bath. Samples were diluted at least 1:10 with AIM V medium (Invitrogen, Carlsbard, Calif.). Samples were washed twice by centrifugation at 400 g for 7 minutes, and representative samples were evaluated for cell concentration and viability. Each DC batch was diluted to 3×10^5 cells/mL in CTL complete medium containing 20 U/mL IL-2, 10 ng/mL IL-7, and 2 μg/mL of the specific peptide, and the DC were irradiated with 2800 Rads. In vitro stimulation plates were removed carefully from the incubator and 90 μL of supernatant (no cells) were removed from each well. To each well, 100 μL of the appropriate DC batch was added. Plates were then incubated further at 37° C., 5% carbon dioxide, and high humidity.
# After the second in vitro stimulation, the plates were checked daily for T-cell proliferation. When required, plates were split (one plate will become two plates) to avoid overgrowth of the CTL. […] The plates were mixed to ensure a homogenous population, then 90 μL of each CTL well was transferred into a new 96 well U bottomed plate. When splitting was performed within 3 days of the last in vitro stimulation, 100 μL of CTL complete medium containing 20 U/mL IL-2 and 10 ng/mL IL-7 was added. If splitting was performed later than 3 days from the last in vitro stimulation, 100 μL of complete CTL medium containing 40 U/mL IL-2 and 20 ng/mL IL-7 was added. Split plates were returned to the incubator at 37° C., 5% carbon dioxide, and high humidity.
# On day 21, the T cells were stimulated a fourth time. The process described for in vitro stimulations 2-3 was repeated with the exception that IL-2 was replaced with 25 ng/mL IL-15.
# Stimulated CTL were assayed for staining using peptide-HLA-A2 dimers. Cells were collected 19 days after the third stimulation (subject 1) or 6 days after the fourth stimulation (subjects 1 and 2).
# [3] = target: HLA-A*0201 (Homo sapiens, UniProt P04439, D140Y/D185E/D98H/E176V/E277Q/G131W/G231S/I119V/I121R/I166T/I218V/L300P/L318F/N151K/N90K/P208A/P217A/Q86G/Q94H/R138H/R169H/T345S); assay: REVEAL MHC binding assay, HLA-A*0201; settings: HLA-A*0201 binding, relative to positive control peptide
# Text: Fifty-five of the candidate peptides were assembled with HLA-A*0201 and analyzed for MHC binding to determine their level of incorporation into MHC molecules using the REVEAL™ MHC binding assay (ProImmune Ltd., Oxford, UK). Binding to MHC molecules was compared to that of two known T-cell epitopes: an intermediate control peptide and a positive control peptide with weak and very strong binding properties, respectively. Eleven peptides bound to HLA-A*0201 as well or better than the positive control, as indicated on Table 5.
Substance,"ELISPOT IFN-γ spots vs negative control ([1]; Subject 2, 4th stim)",ELISPOT result in words ([1]; subject 3 (so in the source)),"percentages of cells that stained positive (above background) for both dimer and CD8 ([2]; Subject 1, 3rd stim) [%]","percentages of cells that stained positive (above background) for both dimer and CD8 ([2]; Subject 1, 4th stim) [%]","percentages of cells that stained positive (above background) for both dimer and CD8 ([2]; Subject 2, 4th stim) [%]","peptide dimer staining relative to background, in words [2]",% Positive Control [3] [%]
11 (YLQWIEFSI; listed as Homo sapiens) [compound 11],++,clearly positive,38.64,20.74,19.39,stained strongly above background,
19 (SQLNSNPEL; listed as Homo sapiens) [compound 19],,,,,,,163.06
20 (GLLERVTRI; listed as Homo sapiens) [compound 20],,,0.27,−0.41,−0.32,indistinguishable from background,
21 (FLLPALIFA; listed as Homo sapiens) [compound 21],,,20.43,13.23,21.18,stained strongly above background,
28 (ILSAFSVYV; listed as Homo sapiens) [compound 28],,,4.15,0.12,14.08,stained moderately above background,
